Data reported in US20150111750A1, “Substituted N-(tetrazol-5-yl)- and N-(triazol-5-yl)hetarylcarboxamide compounds and their use as herbicides” (BASF SE, priority 2012, published 2015).

Legend:
Amaranthus retroflexus = assay: Greenhouse post-emergence treatment of Amaranthus retroflexus; format: in vivo; details: application rate 1000 g/ha, scale 0 (no damage) to 100 (complete destruction)
Description: (§1) The seeds of the test plants were sown separately for each species. For the post-emergence treatment, the test plants were first grown to a height of 3 to 15 cm, depending on the plant habit, and only then treated with the active ingredients which had been suspended or emulsified in water. For this purpose, the test plants were either sown directly and grown in the same containers, or they were first grown separately as seedlings and transplanted into the test containers a few days prior to treatment. Depending on the species, the plants were kept at 10-25° C. or 20-35° C. The test period extended over 2 to 4 weeks. During this time, the plants were tended, and their response to the individual treatments was evaluated. Evaluation was carried out using a scale from 0 to 100. 100 means no emergence of the plants, or complete destruction of at least the aerial moieties, and 0 means no damage, or normal course of growth. A good herbicidal activity is given at values of at least 70 and a very good herbicidal activity is given at values of at least 85. The plants used in the greenhouse experiments belonged to the following species: [table]

Echinochloa crus-galli = assay: Greenhouse post-emergence treatment of Echinochloa crus-galli; format: in vivo; details: application rate 1000 g/ha, scale 0 (no damage) to 100 (complete destruction)
Description: as §1

Cn1ncnc1NC(=O)c1cnc(Cl)cc1Cl [I.5-1, 4,6-dichloro-N-(2-methyl-1,2,4-triazol-3-yl)pyridine-3-carboxamide]
damage [%] (Amaranthus retroflexus): 65%
damage [%] (Echinochloa crus-galli): 30%
